This test addresses adenosine A2A receptor (Homo sapiens, UniProt P29274). Kind of test: adenosine A2A receptor agonist assay (method of Murphree et al, Mol Pharmacol 61, 455-462, 2002). Format: binding. The following applies: method of L. J. Murphree et al. From the text:
Compounds of formula (I) and their pharmaceutically acceptable salts are useful as pharmaceuticals. In particular, they activate the adenosine A2A receptor, i.e., they act as A2A receptor agonists.

Structures are written as SMILES. Where a name gives a salt, the structure may show the parent alone.

Results on two compounds are retold here after patent publication US8071565B2 (Novartis AG, priority 2006, dated 2011).

Usually Ki stands for the equilibrium dissociation constant of an inhibitor or competing ligand from its target.

Sequence of adenosine A2A receptor (P29274 whole entry): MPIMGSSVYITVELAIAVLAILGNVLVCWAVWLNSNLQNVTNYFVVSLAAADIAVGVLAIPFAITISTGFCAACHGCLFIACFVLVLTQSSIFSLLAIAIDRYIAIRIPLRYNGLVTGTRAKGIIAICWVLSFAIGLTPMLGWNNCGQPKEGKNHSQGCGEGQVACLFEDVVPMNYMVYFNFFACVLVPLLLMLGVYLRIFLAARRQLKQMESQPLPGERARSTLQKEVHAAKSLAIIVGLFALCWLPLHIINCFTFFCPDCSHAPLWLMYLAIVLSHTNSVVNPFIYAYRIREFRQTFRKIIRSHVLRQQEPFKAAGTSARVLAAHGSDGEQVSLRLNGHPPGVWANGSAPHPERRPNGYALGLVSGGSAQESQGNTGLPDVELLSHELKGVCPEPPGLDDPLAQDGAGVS

`C[C@@H]1NC(=O)N([C@H]2C[C@@H](n3cnc4c(NCC(c5ccccc5)c5ccccc5)nc(N5CC[C@@H](NC(=O)Nc6cccnc6)C5)nc43)[C@H](O)[C@@H]2O)C1=O` [Example C1] yielded a Ki of 89 nM.

With `O=C(Nc1cccnc1)N[C@@H]1CCN(c2nc(NCC(c3ccccc3)c3ccccc3)c3ncn([C@@H]4C[C@H](N5C(=O)CNC5=O)[C@@H](O)[C@H]4O)c3n2)C1` [Example C2, 1-{(R)-1-[9-[(1R,2S,3R,4S)-4-(2,5-Dioxo-imidazolidin-1-yl)-2,3-dihydroxy-cyclopentyl]-6-(2,2-diphenyl-ethylamino)-9H-purin-2-yl]-pyrrolidin-3-yl}-3-pyridin-3-yl-urea trifluoroacetate], the affinity corresponds to a Ki of 33 nM.
